Assay results published in PubChem BioAssay AID1259407 (Chemical Carcinogenesis Research Information System (CCRIS), 2018).
Active and inactive are the calls of the source. No rule for the calls is given here.

Tested on: CCRIS mutagenicity, Ames/micronucleus/aberration tests
Test: CCRIS mutagenicity studies
[1] = Test System: AMES SALMONELLA TYPHIMURIUM, Strain/Indicator: TA98, Metabolic Activation: NONE, Method: PREINCUBATION
[2] = Test System: AMES SALMONELLA TYPHIMURIUM, Strain/Indicator: TA100, Metabolic Activation: NONE, Method: PREINCUBATION
[3] = Test System: AMES SALMONELLA TYPHIMURIUM, Strain/Indicator: TA1535, Metabolic Activation: NONE, Method: PREINCUBATION
[4] = Test System: AMES SALMONELLA TYPHIMURIUM, Strain/Indicator: TA1537, Metabolic Activation: NONE, Method: PREINCUBATION
[5] = Test System: AMES SALMONELLA TYPHIMURIUM, Strain/Indicator: TA100, Metabolic Activation: NONE, Method: STANDARD PLATE
[6] = Test System: AMES SALMONELLA TYPHIMURIUM, Strain/Indicator: TA98, Metabolic Activation: RAT, LIVER, S-9, PHENOBARBITAL AND 5,6-BENZOFLAVONE, Method: PREINCUBATION
[7] = Test System: AMES SALMONELLA TYPHIMURIUM, Strain/Indicator: TA100, Metabolic Activation: RAT, LIVER, S-9, PHENOBARBITAL AND 5,6-BENZOFLAVONE, Method: PREINCUBATION
[8] = Test System: AMES SALMONELLA TYPHIMURIUM, Strain/Indicator: TA1535, Metabolic Activation: RAT, LIVER, S-9, PHENOBARBITAL AND 5,6-BENZOFLAVONE, Method: PREINCUBATION
[9] = Test System: AMES SALMONELLA TYPHIMURIUM, Strain/Indicator: TA1537, Metabolic Activation: RAT, LIVER, S-9, PHENOBARBITAL AND 5,6-BENZOFLAVONE, Method: PREINCUBATION
[10] = Test System: E. COLI, Strain/Indicator: WP2 UVRA, Metabolic Activation: NONE, Method: PREINCUBATION
[11] = Test System: E. COLI, Strain/Indicator: WP2 UVRA, Metabolic Activation: RAT, LIVER, S-9, PHENOBARBITAL AND 5,6-BENZOFLAVONE, Method: PREINCUBATION
[12] = Test System: AMES SALMONELLA TYPHIMURIUM, Strain/Indicator: TA98, Metabolic Activation: NONE, Method: STANDARD PLATE

SMILES: Cc1c(C)c(Br)c(Br)c(Br)c1Br
- mutagenic call (Test System: AMES SALMONELLA TYPHIMURIUM, Strain/Indicator: TA98, Metabolic Activation: HAMSTER, LIVER, S-9, AROCLOR 1254 (10%), Method: PREINCUBATION): inactive; negative
- mutagenic call [1]: inactive; negative
- mutagenic call (Test System: AMES SALMONELLA TYPHIMURIUM, Strain/Indicator: TA98, Metabolic Activation: RAT, LIVER, S-9, AROCLOR 1254 (10%), Method: PREINCUBATION): inactive; negative
- mutagenic call (Test System: AMES SALMONELLA TYPHIMURIUM, Strain/Indicator: TA100, Metabolic Activation: HAMSTER, LIVER, S-9, AROCLOR 1254 (10%), Method: PREINCUBATION): inactive; negative
- mutagenic call [2]: inactive; negative
- mutagenic call (Test System: AMES SALMONELLA TYPHIMURIUM, Strain/Indicator: TA100, Metabolic Activation: RAT, LIVER, S-9, AROCLOR 1254 (10%), Method: PREINCUBATION): inactive; negative
- mutagenic call (Test System: AMES SALMONELLA TYPHIMURIUM, Strain/Indicator: TA1535, Metabolic Activation: HAMSTER, LIVER, S-9, AROCLOR 1254 (10%), Method: PREINCUBATION): inactive; negative
- mutagenic call [3]: inactive; negative
- mutagenic call (Test System: AMES SALMONELLA TYPHIMURIUM, Strain/Indicator: TA1535, Metabolic Activation: RAT, LIVER, S-9, AROCLOR 1254 (10%), Method: PREINCUBATION): inactive; negative
- mutagenic call (Test System: AMES SALMONELLA TYPHIMURIUM, Strain/Indicator: TA1537, Metabolic Activation: HAMSTER, LIVER, S-9, AROCLOR 1254 (10%), Method: PREINCUBATION): inactive; negative
- mutagenic call [4]: inactive; negative
- mutagenic call (Test System: AMES SALMONELLA TYPHIMURIUM, Strain/Indicator: TA1537, Metabolic Activation: RAT, LIVER, S-9, AROCLOR 1254 (10%), Method: PREINCUBATION): inactive; negative

SMILES: COc1ccc(CC2CO2)cc1OC (centres undefined)
- mutagenic call [2]: active; positive
- mutagenic call [5]: active; positive
- mutagenic call [3]: active; positive
- mutagenic call (Test System: AMES SALMONELLA TYPHIMURIUM, Strain/Indicator: TA1535, Metabolic Activation: NONE, Method: STANDARD PLATE): active; positive

SMILES: CC[C@H](C)[C@H](NC(=O)[C@@H](NC(=O)[C@H](CCC(=O)O)NC(=O)[C@H](CCSC)NC(=O)[C@H](CC(C)C)NC(=O)[C@H](CCCCN)NC(=O)[C@H](CCCNC(=N)N)NC(=O)[C@H](CC(N)=O)NC(=O)[C@H](CO)NC(=O)[C@H](Cc1c[nH]cn1)NC(=O)[C@H](C)NC(=O)[C@H](CCC(N)=O)NC(=O)[C@H](CCC(N)=O)NC(=O)[C@H](C)NC(=O)[C@H](CC(C)C)NC(=O)[C@H](CCC(N)=O)NC(=O)[C@H](CCC(=O)O)NC(=O)[C@H](C)NC(=O)[C@H](CCCNC(=N)N)NC(=O)[C@H](C)NC(=O)[C@H](CCSC)NC(=O)[C@H](CCC(=O)O)NC(=O)[C@H](CC(C)C)NC(=O)[C@@H](NC(=O)[C@H](CCC(=O)O)NC(=O)[C@H](CCCNC(=N)N)NC(=O)[C@H](CC(C)C)NC(=O)[C@H](CC(C)C)NC(=O)[C@H](Cc1c[nH]cn1)NC(=O)[C@H](Cc1ccccc1)NC(=O)[C@@H](NC(=O)[C@H](CC(C)C)NC(=O)[C@H](CC(=O)O)NC(=O)[C@H](CC(C)C)NC(=O)[C@H](CO)NC(=O)[C@@H](NC(=O)[C@@H]1CCCN1C(=O)[C@@H]1CCCN1C(=O)[C@H](CCC(=O)O)NC(=O)[C@H](CCC(=O)O)NC(=O)[C@@H](N)CO)[C@@H](C)CC)[C@@H](C)O)C(C)C)[C@@H](C)CC)C(N)=O
- mutagenic call [1]: inactive; negative
- mutagenic call [6]: inactive; negative
- mutagenic call [2]: inactive; negative
- mutagenic call [7]: inactive; negative
- mutagenic call [3]: inactive; negative
- mutagenic call [8]: inactive; negative
- mutagenic call [4]: inactive; negative
- mutagenic call [9]: inactive; negative
- mutagenic call [10]: inactive; negative
- mutagenic call [11]: inactive; negative

SMILES: CCN(CO)N=O
- mutagenic call (Test System: CHINESE HAMSTER V-79, Strain/Indicator: V-79/OUABAIN, Metabolic Activation: NONE): active; positive

SMILES: CCCCCC(=O)Cc1cc(O)cc2c1C(=O)Oc1cc(O)c(C(=O)O)c(CCCCC)c1O2
- mutagenic call [1]: inactive; negative
- mutagenic call [12]: inactive; negative
- mutagenic call (Test System: AMES SALMONELLA TYPHIMURIUM, Strain/Indicator: TA98, Metabolic Activation: RAT, LIVER, S-9, Method: PREINCUBATION): inactive; negative
- mutagenic call (Test System: AMES SALMONELLA TYPHIMURIUM, Strain/Indicator: TA98, Metabolic Activation: RAT, LIVER, S-9, Method: STANDARD PLATE): inactive; negative
- mutagenic call [2]: inactive; negative
- mutagenic call [5]: inactive; negative
- mutagenic call (Test System: AMES SALMONELLA TYPHIMURIUM, Strain/Indicator: TA100, Metabolic Activation: RAT, LIVER, S-9, Method: PREINCUBATION): inactive; negative
- mutagenic call (Test System: AMES SALMONELLA TYPHIMURIUM, Strain/Indicator: TA100, Metabolic Activation: RAT, LIVER, S-9, Method: STANDARD PLATE): inactive; negative

SMILES: [N-]=[N+]=NCCC(N)C(=O)O (centres undefined)
- mutagenic call (Test System: AMES SALMONELLA TYPHIMURIUM, Strain/Indicator: TA1530, Metabolic Activation: NONE, Method: STANDARD PLATE): active; positive

SMILES: CC(C)Nc1nc(N)nc(Cl)n1
- mutagenic call (Test System: AMES SALMONELLA TYPHIMURIUM, Strain/Indicator: TA97, Metabolic Activation: NONE, Method: STANDARD PLATE): inactive; negative
- mutagenic call [12]: inactive; negative
- mutagenic call [5]: inactive; negative

SMILES: O=[N+]([O-])c1ccc2c(c1)c([N+](=O)[O-])cc1ccccc12
- mutagenic call (Test System: AMES SALMONELLA TYPHIMURIUM, Strain/Indicator: TA98(1,8-DNP6), Metabolic Activation: NONE, Method: STANDARD PLATE): active; positive
- mutagenic call (Test System: AMES SALMONELLA TYPHIMURIUM, Strain/Indicator: TA98(NR), Metabolic Activation: NONE, Method: STANDARD PLATE): active; positive
- mutagenic call [12]: active; positive
- mutagenic call [5]: active; positive
- mutagenic call (Test System: AMES SALMONELLA TYPHIMURIUM, Strain/Indicator: YG1021, Metabolic Activation: NONE, Method: STANDARD PLATE): active; positive
- mutagenic call (Test System: AMES SALMONELLA TYPHIMURIUM, Strain/Indicator: YG1024, Metabolic Activation: NONE, Method: STANDARD PLATE): active; positive
- mutagenic call (Test System: AMES SALMONELLA TYPHIMURIUM, Strain/Indicator: YG1026, Metabolic Activation: NONE, Method: STANDARD PLATE): active; positive
- mutagenic call (Test System: AMES SALMONELLA TYPHIMURIUM, Strain/Indicator: YG1029, Metabolic Activation: NONE, Method: STANDARD PLATE): active; positive

SMILES: CN(C)CCNC(=O)c1cccc2c1C(=O)c1ccccc1C2=O
- mutagenic call (Test System: AMES SALMONELLA TYPHIMURIUM, Strain/Indicator: TA1537, Metabolic Activation: NONE, Method: STANDARD PLATE): active; positive

SMILES: C#CC(OC(=O)NC1CCCCC1)(c1ccccc1)c1ccccc1
- mutagenic call [5]: active; positive

SMILES: COC(=O)C1=C(C)NC(C)=C(C(=O)OCCc2ccc(N3CCN(C(c4ccccc4)c4ccccc4)CC3)cc2)C1c1cccc([N+](=O)[O-])c1 (centres undefined)
- mutagenic call [1]: inactive; negative
- mutagenic call [6]: inactive; negative
- mutagenic call [2]: inactive; negative
- mutagenic call [7]: inactive; negative
- mutagenic call [3]: inactive; negative
- mutagenic call [8]: inactive; negative
- mutagenic call [4]: inactive; negative
- mutagenic call [9]: inactive; negative
- mutagenic call [10]: inactive; negative
- mutagenic call [11]: inactive; negative
